The values below come from patent publication US20230041743A1, “1,8-NAPHTHYRIDIN-2-ONE COMPOUNDS FOR THE TREATMENT OF AUTOIMMUNE DISEASE” (Hoffmann-La Roche Inc., priority 2019, published 2023).

Data set [1] in a line: Human microsomal stability assay. It is filed as in vitro ADME. To be noted: human liver microsomes, 1 μM test compound, 0.5 mg/mL protein, 37° C.; low <7.0, medium 7.0-16.2, high 16.2-23.2. The procedure: Human Microsomal Stability Assay
Human liver microsomes (Cat. NO.: 452117, Corning, USA) were preincubated with test compound for 10 minutes at 37° C. in 100 mM potassium phosphate buffer, pH 7.4. The reactions were initiated by adding NADPH regenerating system. The final incubation mixtures contained 1 μM test compound, 0.5 mg/mL liver microsomal protein, 1 mM MgCl2, 1 mM NADP, 1 unit/mL isocitric dehydrogenase and 6 mM isocitric acid in 100 mM potassium phosphate buffer, pH 7.4. After incubation times of 0, 3, 6, 9, 15 and 30 minutes at 37° C., 300 μL of cold ACN (including internal standard) was added to 100 μL incubation mixture to terminate the reaction. Following precipitation and centrifugation, 100 uL supernatant will be taken out and added 300 uL water.
The amount of compound remaining in the samples was determined by LC-MS/MS. Controls of no NADPH regenerating system at zero and 30 minutes were also prepared and analyzed. The results were categorized as: low (<7.0 mL/min/kg), medium (7.0-16.2 mL/min/kg) and high (16.2-23.2 mL/min/kg).

The target in a further data set is T1, human TLR7 (Homo sapiens, UniProt Q9NYK1).
T1 construct: host or cells: HEK293 (HEK-Blue hTLR7)
T1 sequence (Q9NYK1 27-1049): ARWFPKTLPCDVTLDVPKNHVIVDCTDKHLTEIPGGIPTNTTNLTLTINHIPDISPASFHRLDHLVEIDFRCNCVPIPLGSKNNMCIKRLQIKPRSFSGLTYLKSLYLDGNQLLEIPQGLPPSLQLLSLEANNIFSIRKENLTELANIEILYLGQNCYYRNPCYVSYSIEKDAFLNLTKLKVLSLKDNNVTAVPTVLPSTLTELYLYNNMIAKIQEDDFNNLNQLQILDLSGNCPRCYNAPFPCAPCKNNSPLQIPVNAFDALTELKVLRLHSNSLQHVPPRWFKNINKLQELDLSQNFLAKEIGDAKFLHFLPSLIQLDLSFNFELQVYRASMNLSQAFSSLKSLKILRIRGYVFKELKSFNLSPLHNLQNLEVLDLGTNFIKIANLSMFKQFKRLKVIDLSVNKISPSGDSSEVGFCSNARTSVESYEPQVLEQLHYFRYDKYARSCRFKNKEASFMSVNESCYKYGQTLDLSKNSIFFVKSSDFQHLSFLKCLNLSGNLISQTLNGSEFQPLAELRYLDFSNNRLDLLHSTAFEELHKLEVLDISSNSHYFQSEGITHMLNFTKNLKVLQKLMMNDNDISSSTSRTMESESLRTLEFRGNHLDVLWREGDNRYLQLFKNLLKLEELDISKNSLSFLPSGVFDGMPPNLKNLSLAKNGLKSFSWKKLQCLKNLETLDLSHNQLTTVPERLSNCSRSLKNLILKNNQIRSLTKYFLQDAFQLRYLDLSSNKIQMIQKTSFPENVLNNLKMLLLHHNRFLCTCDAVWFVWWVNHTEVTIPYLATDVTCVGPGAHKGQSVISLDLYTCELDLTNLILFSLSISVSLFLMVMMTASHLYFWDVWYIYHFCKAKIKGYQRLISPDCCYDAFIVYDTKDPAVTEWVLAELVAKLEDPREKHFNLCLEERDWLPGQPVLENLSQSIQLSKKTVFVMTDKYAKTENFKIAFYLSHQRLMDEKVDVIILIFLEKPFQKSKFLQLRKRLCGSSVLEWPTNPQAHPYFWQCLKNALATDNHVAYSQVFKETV
Nature of the data set: HEK293-Blue-hTLR-7 cells assay (SEAP reporter, R848 stimulation). It is filed as cell-based. Particulars: HEK293-Blue-hTLR7 cells, R848 ligand, 20 hrs incubation; read-out: HEK/hTLR7 IC50. An excerpt:
HEK293-Blue-hTLR-7 Cells Assay:
A stable HEK293-Blue-hTLR-7 cell line was purchased from InvivoGen (Cat. #: hkb-htlr7, San Diego, Calif., USA). These cells were originally designed for studying the stimulation of human TLR7 by monitoring the activation of NF-κB. A SEAP (secreted embryonic alkaline phosphatase) reporter gene was placed under the control of the IFN-β minimal promoter fused to five NF-κB and AP-1-binding sites. The SEAP was induced by activating NF-κB and AP-1 via stimulating HEK-Blue hTLR7 cells with TLR7 ligands. Therefore the reporter expression was declined by TLR7 antagonist under the stimulation of a ligand, such as R848 (Resiquimod), for incubation of 20 hrs. The cell culture supernatant SEAP reporter activity was determined using QUANTI-Blue™ kit (Cat. #: rep-qb1, Invivogen, San Diego, Ca, USA) at a wavelength of 640 nm, a detection medium that turns purple or blue in the presence of alkaline phosphatase.
HEK293-Blue-hTLR7 cells were incubated at a density of 250,000-450,000 cells/mL in a volume of 170 μL in a 96-well plate in Dulbecco's Modified Eagle's medium (DMEM) containing 4.5 g/L glucose, 50 U/mL penicillin, […], […], 2 mM L-glutamine, 10% (v/v) heat-inactivated fetal bovine serum with addition of 20 μL test compound in a serial dilution in the presence of final DMSO at 1% and 10 μL of 20 uM R848 in above DMEM, perform incubation under 37° C. in a CO2 incubator for 20 hrs. Then 20 μL of the supernatant from each well was incubated with 180 μL Quanti-blue substrate solution at 37° C. for 2 hrs and the absorbance was read at 620˜655 nm using a spectrophotometer. The signaling pathway that TLR7 activation leads to downstream NF-κB activation has been widely accepted, and therefore similar reporter assay was modified for evaluating TLR7 antagonist.

In the case of `C[C@@H]1CN(c2cc(=O)n(C)c3ncccc23)C[C@@H]2c3ccc([C@H]4C[C@H]5COC[C@@H](C4)N5)cc3CN12` [Example 28A, 4-[(4R,10bS)-4-methyl-8-(endo-3-oxa-9-azabicyclo[3.3.1]nonan-7-yl)-3,4,6,10b-tetrahydro-1H-pyrazino[2,1-a]isoindol-2-yl]-1-methyl-1,8-naphthyridin-2-one], in data set [1], the “CL (h)” value is recorded as 9.2 mL/min/kg. Further, the IC50 at human TLR7 was 7.2 nM.
The corresponding values for `CCn1c(=O)cc(N2C[C@@H](C)N3Cc4cc(N5C[C@@H](N)[C@H](OC)C5)ccc4[C@H]3C2)c2cccnc21` [Example 29, 4-[(4R,10bS)-8-[(3R,4R)-3-amino-4-methoxy-pyrrolidin-1-yl]-4-methyl-3,4,6,10b-tetrahydro-1H-pyrazino[2,1-a]isoindol-2-yl]-1-ethyl-1,8-naphthyridin-2-one] are 6.4 mL/min/kg and 85.2 nM.
